Series [1] deals with HBV cccDNA. The series is described as follows: Time-of-addition experiments on cccDNA synthesis. It is filed as cell-based, HBV (Genotype D). To be noted: for HBV cccDNA level: HepG2-hNTCP and dHepaRG. On the procedure: FIGS. 3A-3F illustrate that F7 and poly-U/UC PAMP suppress de novo HBV cccDNA synthesis. (3A) Upper: Infection and poly-U/UC PAMP treatment schedule. Cells were treated with 100 ng/ml of poly-U/UC PAMP either for 24 hours before (Pre), for 48 hours after HBV infection (Post), or for 72 hours (pre/post). At 3 dpi cells were harvested and Hirt extracts were prepared (3B) HepG2-hNTCP cells and (3C) dHepaRG cells were analyzed by Southern blot (upper) and RT-qPCR (lower). For RT-qPCR. anal sis, values from DMSO treated control were set to 100% respectively, and data are shown as mean±standard deviations (SD) percentage of cccDNA in control samples. ***P<0.005, and ns=non-significant. (3D) HBV infection and F7 treatment schedule. Cells were treated with F7 (10 μM) either for 24 hours before (Pre), 24 hours during the time of infection (Co), d8 hours after infection (Post), or 96 hours pre/co/post). At 3 Dpi, the cells were harvested and. Hirt extracts prepared HepG2-hNTCP (3E) and dHepaRG cells (3F). Upper panels show Southern blot analysis. Lower panels show or RT-qPCR analysis and percent of cccDNA remaining in treated cells compared to control DMS)-treated cells. Values from DMSO-treated control cultures were set to 100%. Data was presented as mean±standard deviations (SD), *P<0.01, **P<0.005, ***P<0.001, ****P<0.0001 and ns=non-significant. CsA served as a treatment control. For Southern blots the position of mass markers are indicated.
To further define inhibitory effect of F7 and poly-U/UC on cccDNA biosynthesis, time-of-addition experiments were conducted in HepG2-hNTCP and dHepaRG cells. For poly-U/UC PAMP, treatment for 24 hours pre-infection (pre-treatment), from 1 to 3 dpi (post-treatment), and from 24 hours pre-infection onward through 3 dpi (pre/post-treatment) were conducted (FIG. 3A). […]

Series [2] concerns HBV cccDNA. The series is described as follows: HBV cccDNA formation in infected differentiated HepaRG cells (Southern blot, RT-qPCR). It is filed as cell-based, HBV (Genotype D). To be noted: HBV 1000 Geq/cell, harvested 3 dpi; for IC50: read-out: IC50, decline of cccDNA relative to DMSO treated controls; for IC90: read-out: IC90, decline of cccDNA relative to DMSO treated controls. As for the experimental part:
The scheme illustrates the schedule with HBV inoculum (1000 Geq/cell) and administration of Cyclosporin A (CsA), F7, X-RNA and poly-U/UC PAMP. 2.5% DMSO was added to the medium at 1 day post infection (Dpi). cccDNA and PF RC DNA were harvested from HepG2-hNTCP cells using Hirt extraction method and analyzed by Southern blot analysis using an HBV-specific DNA probe. Viral protein-free DNAs (protein-free Relaxed Circular DNA [PF-RC DNA] and cccDNA) are noted. (2B and 2C) HepG2-hNTCP 2(B) or differentiated HepaRG cells (2C) were infected with HBV at moi of 1000 Geq/cell, and administered CsA (10 μM) or F7, in the indicated concentrations. For upper panels of (2B) and (2C), DNAs were isolated after Hirt extraction at 3 dpi and subjected to Southern blot analysis using as HBV-DNA probe. […] (2D and 2E) HepG2-hNTCP (2D) or dHepaRG cells (2E) were infected with HBV at an moi of 1000 Geq/cell, and administered CsA (10 μM), X-RNA (100 ng/ml), or poly-U/UC PAMP in the indicated concentrations. For upper panels of (2D) and (2E), DNAs were analyzed using Southern blot analysis. For lower panels of (2D) and (2E), DNAs were analyzed by RT-qPCR. IC90, and IC50 values were calculated based on the decline of the cccDNA relative to DMSO treated controls. IC90, and IC50 values are the average of three experiments±one standard deviation. […] Positions of mass markers are indicated on each Southern blot.
HBV infection HBV (Genotype D) was purified from the supernatant of HepAD38 cells by PEG concentration and subsequent sucrose gradient, as described previously (Ko, C., et al. (2014). DDX3 DEAD-Box RNA Helicase Is a Host Factor That Restricts Hepatitis B Virus Replication at the Transcriptional Level. Journal of Virology 88, 13689-13698; Watashi, K., et al. (2013), supra). For HBV infection cells were seeded into collagen-coated plates. One day later, the cells were infected with HBV in DMEM containing 4% polyethylene glycol 8000 (PEG-8000). The multiplicities of infection (expressed as virus genome equivalent/cell) are indicated in each Figure Legend. The inocula were removed 24 hours later, and the infected cultures were maintained in complete DMEM containing 2.5% DMSO until harvesting, as described previously (Ni, Y., et al. (2014). Hepatitis B and D viruses exploit sodium taurocholate co-transporting polypeptide for species-specific entry into hepatocytes. Gastroenterology 146, 1070-1083).
Reverse transcription quantitative real time qPCR (RT-qPCR) analysis: Total cellular RNAs were extracted from cells using TRIZOL reagent and the manufacturers protocol (Invitrogen). cDNA was synthesized from the purified RNA by both random and oligo (dT) priming using iScript select cDNA synthesis kit (Biorad, Inc.). […]
(Real-time PCR tracks product formation cycle by cycle.)

[3] abbreviates: Hepatitis B virus, differentiated HepaRG cells.

Read-outs that look alike come from different tables or passages of the source. {ppp} = triphosphate

On to `O=C(Nc1ccc2nc(NC(=O)c3ccc4ccccc4c3)sc2c1)c1ccccc1` [F7, N-(6-benzamido-1,3-benzothiazol-2-yl)naphthalene-2-carboxamide], for which the “HBV cccDNA level” value is reported as “little effect on HBV cccDNA level” in the series with HBV cccDNA [1] (F7 10 μM administered once pre or co-treatment, 3 dpi) and “significant suppression of cccDNA levels” in the series with HBV cccDNA [1] (F7 10 μM administered post-infection or pre/co/post through 3 dpi). The IC50 (as a rule, the midpoint of a concentration-inhibition curve) in the series on HBV cccDNA [2] (setting [3]) was around 3380 nM. For the same molecule, the IC90 (in general, the concentration needed for an effect of 90%) with HBV cccDNA [2] (setting [3]) was around 12800 nM.

B1: poly-U/UC PAMP: ~100 nt PAMP motif from the HCV genome comprising 5′ppp and the poly U/UC region, recognized by RIG-I; formulated in liposome (nucleic acid)
chain: GGCCAUCCUGUUUUUUUCCCUUUUUUUUUUUCUUUUUUUUUUUUUUUUUUUUUUUUUUUUUUUUUUCUCCUUUUUUUUUCCUCUUUUUUUCCUUUUCUUUCCUUU
modifications: RNA, 5' {ppp}, backbone and methylation of C not given here; formulated in liposome
notes: ~100 nt PAMP motif from the HCV genome comprising 5′ppp and the poly U/UC region, recognized by RIG-I; formulated in liposome
Take B1: the “synthesis of cccDNA” value in the series on HBV cccDNA [1] (poly-U/UC PAMP 100 ng/ml pre-, post- and pre/post-treatment, HepG2-hNTCP and HepaRG cells, 3 dpi) is “uniformly significantly suppressed”. In the series with HBV cccDNA [2] (dHepaRG cells), the IC50 was around 1.61 nM and the IC90 was around 3.3 nM.

These data come from patent US20220241314A1, “COMPOSITIONS AND METHODS FOR TREATMENT OF HEPATITIS B VIRUS INFECTION” (priority 2019, published 2022).
